Data published in ChEMBL document CHEMBL4017449, “Inhibition of Malassezia globosa carbonic anhydrase with phenols” (Bioorg Med Chem, 2017).

Key:
[1] = Inhibition of Malassezia globosa recombinant beta-carbonic anhydrase preincubated for 15 mins prior to testing measured for 10 to 100 secs by phenol red-based stopped-flow CO2 hydration assay
Carbonic anhydrase 1 = Carbonic anhydrase 1 (Homo sapiens, UniProt P00915); test: Inhibition of human recombinant carbonic anhydrase 1 preincubated for 15 mins prior to testing measured for 10 to 100 secs by phenol red-based stopped-flow CO2 hydration assay
Carbonic anhydrase 2 = Carbonic anhydrase 2 (Homo sapiens, UniProt P00918); test: Inhibition of human recombinant carbonic anhydrase 2 preincubated for 15 mins prior to testing measured for 10 to 100 secs by phenol red-based stopped-flow CO2 hydration assay

Sequence of Carbonic anhydrase 1 (P00915 whole entry): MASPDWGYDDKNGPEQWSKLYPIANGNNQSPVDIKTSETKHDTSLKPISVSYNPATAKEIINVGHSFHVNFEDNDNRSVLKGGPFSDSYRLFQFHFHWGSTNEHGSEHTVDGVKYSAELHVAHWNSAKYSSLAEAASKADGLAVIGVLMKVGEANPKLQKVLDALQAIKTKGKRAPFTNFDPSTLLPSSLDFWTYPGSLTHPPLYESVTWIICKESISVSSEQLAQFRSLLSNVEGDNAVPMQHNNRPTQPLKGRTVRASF

Ki [1] [µM]	Ki (Carbonic anhydrase 1) [µM]	Ki (Carbonic anhydrase 2) [µM]	SMILES
2.5	–	–	CC(=O)Nc1ccc(O)cc1 [ACETAMINOPHEN]
7.4	> 100	> 100	Oc1ccc(O)c(O)c1
36.4	> 100	> 100	Oc1c(F)cc(F)cc1F
3.3	–	–	O=C(O)/C=C/c1ccc(O)cc1 [COUMARIC ACID]
44.9	–	–	Nc1cc(O)ccc1Cl
29.7	–	–	Oc1cc(F)ccc1F
0.6	–	–	O=C(O)/C=C/c1ccc(O)c(O)c1 [CAFFEIC ACID]
7	–	–	Oc1ccccc1O [CATECHOL]
6.3	–	–	Oc1ccc(O)cc1 [HYDROQUINONE]
8.8	–	–	Oc1cc(F)cc(F)c1
> 100	57.8	57.5	Nc1ccc(O)c(Cl)c1
6.1	–	–	Oc1cccc(O)c1 [RESORCINOL]
4.5	–	–	O=C(O)c1cc(O)ccc1O [GENTISIC ACID]
3.9	–	–	Nc1cccc(O)c1 [3-AMINOPHENOL]
6.1	–	–	OCc1ccc(O)cc1 [PARAHYDROXYBENZYL ALCOHOL]
6.5	–	–	O=C(O)c1ccc(O)c(O)c1 [PROTOCATECHUIC ACID]
4.9	–	–	O=C(O)c1ccc(O)cc1 [PARABEN]
5.9	–	–	O=C(O)c1c(O)cccc1O

SMILES	Ki [1] [µM]	Ki (Carbonic anhydrase 1) [µM]	Ki (Carbonic anhydrase 2) [µM]
O=C(O)c1ccccc1O [SALICYLIC ACID]	6.6	–	–
CC(=O)Nc1nnc(S(N)(=O)=O)s1 [ACETAZOLAMIDE]	74	–	–
N#Cc1ccc(O)cc1 [4-CYANOPHENOL]	0.7	–	–
Oc1ccccc1 [PHENOL]	65	–	–
Nc1ccc(O)cc1 [4-AMINOPHENOL]	32	–	–
